Columns and labels:
Type in all cases: in vivo
[1] = system: green peach aphid (Myzus persicae); test: Myzus persicae spray test; conditions: mortality
Description: (§1) Formula for the efficacy of the combination of two compounds • The expected efficacy of a given combination of two compounds is calculated as follows (see Colby, S. R., “Calculating Synergistic and antagonistic Responses of Herbicide Combinations”, Weeds 15, pp. 20-22, 1967):
(§2) • X is the efficacy expressed in % mortality of the untreated control for test compound A at a concentration of m ppm respectively m g/ha, • Y is the efficacy expressed in % mortality of the untreated control for test compound B at a concentration of n ppm respectively n g/ha, • E is the efficacy expressed in % mortality of the untreated control using the mixture of A and B at m and n ppm respectively m and n g/ha,
(§3) If the observed insecticidal efficacy of the combination is higher than the one calculated as “E”, then the combination of the two compounds is more than additive, i.e., there is a synergistic effect.
• Solvent: 78.0 parts by weight acetone • 1.5 parts by weight dimethylformamide • Emulsifier: alkylaryl polyglycol ether […]
(§4) After the specified period of time, mortality in % is determined. […] The mortality values determined thus are recalculated using the Colby-formula (see sheet 1).

[2] = system: mustard beetle larvae (Phaedon cochleariae); test: Phaedon cochleariae spray test; conditions: mortality, Chinese cabbage leaf disks sprayed
Description: as §1, §2, §3
• Solvent: 78.0 parts by weight of acetone • 1.5 parts by weight of dimethylformamide • Emulsifier: alkylaryl polyglycol ether […]
as §4

[3] = system: southern root-knot nematode (Meloidogyne incognita); test: Meloidogyne incognita test (MELGIN); conditions: nematicidal activity by gall formation on salad roots, 0.08 ppm
Description: as §1, §2, §3
• Solvent: 125.0 parts by weight of acetone
To produce a suitable preparation of active compound, 1 part by weight of active compound is mixed with the stated amount of solvent, and the concentrate is diluted with water to the desired concentration. […]
After the specified period the nematicidal activity is determined on the basis of the percentage of gall formation. […] The values determined thus are recalculated using the Colby-formula (see sheet 1).

Compound	Efficacy in % after 6d ([1]; 0.8 g ai/ha, test 2, 6 d) [%]	Efficacy in % after 1d ([1]; 4 g ai/ha, test 1, 1 d) [%]	Efficacy in % after 6d ([2]; 0.8 g ai/ha) [%]	Efficacy in % after 14d [3] [%]	Efficacy in % after 6d ([2]; 0.2 g ai/ha) [%]
N#Cc1nn(-c2c(Cl)cc(C(F)(F)F)cc2Cl)c(N)c1[S+]([O-])C(F)(F)F (centres unmarked) [Fipronil]	0	0	0	–	–
Abamectin	–	–	–	0	0
